Results reported in ChEMBL document CHEMBL3085753, “Bridged tricyclic sesquiterpenes from the tubercle nudibranch Phyllidia coelestis Bergh” (J Nat Prod, 2013).

How the values were obtained:
MCF7 = assay: Antiproliferative activity against human MCF7 cells by SRB assay; assay type: functional, cell-based
KB = assay: Antiproliferative activity against human KB cells by SRB assay; assay type: functional, cell-based
HeLa = assay: Antiproliferative activity against human HeLa cells by SRB assay; assay type: functional, cell-based
HT-29 [1] = assay: Antiproliferative activity against human HT-29 cells by SRB assay; assay type: functional, cell-based
[2] = Cytotoxicity against human Gingival fibroblasts at 20 uM by SRB assay; set-up: species or system Gingival fibroblast; conditions: read-out: INH
HT-29 [3] = assay: Antiproliferative activity against human HT-29 cells at 20 uM by SRB assay; assay type: functional

CC[C@@]1(O)C(=O)OCc2c1cc1n(c2=O)Cc2cc3ccccc3nc2-1 [CAMPTOTHECIN] showed an IC50 (MCF7) of 3.3 nM, an IC50 (KB) of 20 nM and an IC50 (HeLa) of 130 nM. It also gave an IC50 (HT-29 [1]) of 0.7 nM.
CC(C)[C@@H]1C[C@@]2(C)[C@@H]3CC[C@](C)(NC=O)[C@H]2C[C@@H]31 (relative stereo) showed an IC50 (MCF7) of 650 nM, an IC50 (KB) of 2400 nM and an IC50 (HeLa) of 130 nM. It also gave a cytotoxicity at 20 µM [2] of 65% and an IC50 (HT-29 [1]) of 6800 nM.
With CC(C)[C@@H]1C[C@@]2(C)[C@@H]3CC[C@@](C)(C[C@@H]31)[C@@H]2NC=O (relative stereo) the IC50 (MCF7) was 8200 nM, the IC50 (KB) was 1200 nM and the IC50 (HeLa) was 70 nM. It also gave an inhibition at 20 µM (HT-29 [3]) of 35% and a cytotoxicity at 20 µM [2] of 25%.
